From patent US4317815A, “LH-RH Antagonists” (priority 1979, dated 1982)
*1 amine or outer side, *2 acyl side, *3 side chain or, on linkers, in order; H or OH if unused. Where a SMILES comes first, the peptide text is derived from it. [ ]: non-standard residue; d: D form. dPhe(4-Br) = N[C@H](Cc1ccc(Br)cc1)C(=O)O; dPhe(4-Cl) = N[C@H](Cc1ccc(Cl)cc1)C(=O)O; dPhe(4-F) = N[C@H](Cc1ccc(F)cc1)C(=O)O; Suc = O=C(CCC(=O)[*:2])[*:1]

Test system: mature female rats
Assay: Antiovulatory activity (blockade of ovulation) in proestrus female rats, test of de la Cruz et al.
Assay type: in vivo, rat
Settings: 12 noon of proestrus
Description: The analogs are administered in 20% propylene glycol in physiologic saline (see Table I) or as a suspension in corn oil (see Table II) at 12 noon of the day of proestrus. On the following day, the rats are sacrificed, their fallopian tubes and uteri flushed with saline and the washed examined for ova.
The test results for several analogs are given in Table I. In Table II, a comparison, between the compound of formula I in which X is acetyl, R^1 is D-Phe, R^2 is D-p-Cl-Phe, R^3 is D-Trp, R^4 is D-Trp and R^5 is Gly, the title compound of Example 7, and the compound of the prior art, [Ac-D-Phe^1, D-Phe^2, D-Trp^3,6 ]-LH-RH, noted hereinbefore, is shown. As noted above, a different carrier is used for administering the compounds in Table I than in Table II.

[1] = Table I, dose 0.015 mg, in 20% propylene glycol in physiologic saline
[2] = Table I, dose 0.25 mg, in 20% propylene glycol in physiologic saline, ova examined the following day
[3] = Table I, dose 0.062 mg, in 20% propylene glycol in physiologic saline
[4] = Table I, dose 0.125 mg, in 20% propylene glycol in physiologic saline

`CC(=O)N[C@H](Cc1ccccc1)C(=O)N[C@H](Cc1ccc(Cl)cc1)C(=O)N[C@H](Cc1c[nH]c2ccccc12)C(=O)N[C@@H](CO)C(=O)N[C@@H](Cc1ccc(O)cc1)C(=O)N[C@H](Cc1c[nH]c2ccccc12)C(=O)N[C@@H](CC(C)C)C(=O)N[C@@H](CCCNC(=N)N)C(=O)N1CCC[C@H]1C(=O)N[C@H](C)C(N)=O` [Example 16, N-Acetyl-D-phenylalanyl-D-p-chlorophenylalanyl-D-tryptophyl-L-seryl-L-tyrosyl-D-tryptophyl-L-leucyl-L-arginyl-L-prolyl-D-alaninamide] (Ac-[dF][dPhe(4-Cl)][dW]SY[dW]LRP[dA]-NH2) was tested, and the “% Blockade of Ovulation” value [1] was 100%.
With `CC(=O)N[C@H](Cc1ccc(Cl)cc1)C(=O)N[C@H](Cc1ccc(Cl)cc1)C(=O)N[C@H](Cc1c[nH]c2ccccc12)C(=O)N[C@@H](CO)C(=O)N[C@@H](Cc1ccc(O)cc1)C(=O)N[C@H](Cc1c[nH]c2ccccc12)C(=O)N[C@@H](CC(C)C)C(=O)N[C@@H](CCCNC(=N)N)C(=O)N1CCC[C@H]1C(=O)NCC(N)=O` [Example 14, N-Acetyl-D-p-chlorophenylalanyl-D-p-chlorophenylalanyl-D-tryptophyl-L-seryl-L-tyrosyl-D-tryptophyl-L-leucyl-L-arginyl-L-prolyl-glycinamide] (Ac-[dPhe(4-Cl)][dPhe(4-Cl)][dW]SY[dW]LRPG-NH2) the “% Blockade of Ovulation” value [1] was 70%.
For `CC(C)C[C@H](NC(=O)[C@@H](Cc1ccccc1)NC(=O)[C@H](Cc1ccc(O)cc1)NC(=O)[C@H](CO)NC(=O)[C@@H](Cc1c[nH]c2ccccc12)NC(=O)[C@@H](Cc1ccc(F)cc1)NC(=O)[C@H](N)Cc1ccccc1)C(=O)N[C@@H](CCCNC(=N)N)C(=O)N1CCC[C@H]1C(=O)NCC(N)=O` [D-Phenylalanyl-D-p-fluorophenylalanyl-D-tryptophyl-L-seryl-L-tyrosyl-D-phenylalanyl-L-leucyl-L-arginyl-L-prolyl-glycinamide] (H-[dF][dPhe(4-F)][dW]SY[dF]LRPG-NH2), the “% Blockade of Ovulation” value [2] was 10%.
For `CC(C)C[C@H](NC(=O)[C@@H](Cc1ccccc1)NC(=O)[C@H](Cc1ccc(O)cc1)NC(=O)[C@H](CO)NC(=O)[C@@H](Cc1c[nH]c2ccccc12)NC(=O)[C@@H](Cc1ccc(Cl)cc1)NC(=O)[C@@H](Cc1ccccc1)NC(=O)CCC(=O)O)C(=O)N[C@@H](CCCNC(=N)N)C(=O)N1CCC[C@H]1C(=O)NCC(N)=O` [Example 10, N-Succinyl-D-phenylalanyl-D-p-chlorophenylalanyl-D-tryptophyl-L-seryl-L-tyrosyl-D-phenylalanyl-L-leucyl-L-arginyl-l-prolyl-glycinamide] (Suc-[dF][dPhe(4-Cl)][dW]SY[dF]LRPG-NH2), the “% Blockade of Ovulation” value [3] was 50% and the “% Blockade of Ovulation” value [4] was 80%.
With `CC(C)C[C@H](NC(=O)[C@@H](Cc1ccccc1)NC(=O)[C@H](Cc1ccc(O)cc1)NC(=O)[C@H](CO)NC(=O)[C@@H](Cc1c[nH]c2ccccc12)NC(=O)[C@@H](Cc1ccc(Cl)cc1)NC(=O)[C@H](N)Cc1ccccc1)C(=O)N[C@@H](CCCNC(=N)N)C(=O)N1CCC[C@H]1C(=O)NCC(N)=O` [Example 9, D-Phenylalanyl-D-p-chlorophenylalanyl-D-tryptophyl-L-seryl-L-tyrosyl-D-phenylalanyl-L-leucyl-L-arginyl-L-prolyl-glycinamide] (H-[dF][dPhe(4-Cl)][dW]SY[dF]LRPG-NH2) the “% Blockade of Ovulation” value [4] was 11% and the “% Blockade of Ovulation” value [2] was 82%.
`CC(C)C[C@H](NC(=O)[C@@H](Cc1ccccc1)NC(=O)[C@H](Cc1ccc(O)cc1)NC(=O)[C@H](CO)NC(=O)[C@@H](Cc1c[nH]c2ccccc12)NC(=O)[C@@H](Cc1ccc(Br)cc1)NC(=O)[C@H](N)Cc1ccccc1)C(=O)N[C@@H](CCCNC(=N)N)C(=O)N1CCC[C@H]1C(=O)NCC(N)=O` [Example 8, D-Phenylalanyl-D-p-bromophenylalanyl-D-tryptophyl-L-seryl-L-tyrosyl-D-phenylalanyl-L-leucyl-L-arginyl-L-prolyl-glycinamide] (H-[dF][dPhe(4-Br)][dW]SY[dF]LRPG-NH2) was tested, and the “% Blockade of Ovulation” value [2] was 50%.
For `CC(=O)N[C@H](Cc1ccccc1)C(=O)N[C@H](Cc1ccc(Cl)cc1)C(=O)N[C@H](Cc1c[nH]c2ccccc12)C(=O)N[C@@H](CO)C(=O)N[C@@H](Cc1ccc(O)cc1)C(=O)N[C@H](Cc1c[nH]c2ccccc12)C(=O)N[C@@H](CC(C)C)C(=O)N[C@@H](CCCNC(=N)N)C(=O)N1CCC[C@H]1C(=O)NCC(N)=O` [Example 7, N-Acetyl-D-phenylalanyl-D-p-chlorophenylalanyl-D-tryptophyl-L-seryl-L-tyrosyl-D-tryptophyl-L-leucyl-L-arginyl-L-prolyl-glycinamide] (Ac-[dF][dPhe(4-Cl)][dW]SY[dW]LRPG-NH2), the “% Blockade of Ovulation” value (Table I, dose 0.031 mg, in 20% propylene glycol in physiologic saline) was 64%, the “% Blockade of Ovulation” value [3] was 100% and the “% Blockade of Ovulation” value (Table II, dose 15 mcg, suspension in corn oil) was 100%. For the same molecule, the “% Blockade of Ovulation” value (Table II, dose 31 mcg, suspension in corn oil) was 100%.
For `CC(=O)N[C@H](Cc1ccccc1)C(=O)N[C@H](Cc1ccccc1)C(=O)N[C@H](Cc1c[nH]c2ccccc12)C(=O)N[C@@H](CO)C(=O)N[C@@H](Cc1ccc(O)cc1)C(=O)N[C@H](Cc1c[nH]c2ccccc12)C(=O)N[C@@H](CC(C)C)C(=O)N[C@@H](CCCNC(=N)N)C(=O)N1CCC[C@H]1C(=O)NCC(N)=O` [[Ac-D-Phe^1, D-Phe^2, D-Trp^3,6]-LH-RH, reference compound] (Ac-[dF][dF][dW]SY[dW]LRPG-NH2), the “% Blockade of Ovulation” value (Table II, dose 100 mcg, suspension in corn oil) was 40% and the “% Blockade of Ovulation” value (Table II, dose 250 mcg, suspension in corn oil) was 100%.
